In PMC12064818, “A general assay platform to study protein pharmacology using ligand-dependent structural dynamics” (Nature Communications, 2025):

Experiments:
[1] = target: T1, FLuc-C-HiBiT (Photinus pyralis, UniProt P08659); experiment: biochemical; conditions: enzyme activity, 10 uM ATP; read-out: IC50 or SDR50 (mM) / FLuc E
T1 construct: firefly luciferase with C-terminal HiBiT tag, E. coli expressed

[2] = target: FLuc-N-HiBiT (firefly luciferase) (Photinus pyralis, UniProt P08659, form not given/L550V); experiment: SDR assay, FLuc-N-HiBiT; conditions: substituted indoline (clade A'); for % Activity (max response, + ATP) / % Activity (max response, - ATP): SDR
[3] = target: FLuc-C-HiBiT (firefly luciferase) (Photinus pyralis, UniProt P08659, form not given/L550V); experiment: SDR assay, FLuc-C-HiBiT; conditions: SDR max. response, clade S
[4] = target: P. pyralis FLuc (Photinus pyralis, UniProt P08659); experiment: FLuc enzymatic luminescence assay, P. pyralis FLuc; assay type: biochemical; conditions: FLuc enzymatic assay; for Efficacy (%) FLuc E: Clade S follow-up; for IC50: read-out: IC50 or SDR50 (mM) FLuc E
Protocol: The enzyme activity of FLuc-N-HiBiT, FLuc-C-HiBiT, and FLuc-C-NLuc was measured similar to P. pyralis firefly luciferase (FLuc) as previously described. […] Compounds and controls were added to each plate as described in Supplementary Data 8 with a Hornet pintool system (Wako Automation). Compounds were incubated with respective enzymes for 30–60 min at room temperature protected from light and covered by solid metal lid to prevent evaporation. […] Luciferin was incubated with FLuc enzyme for 5 min before FLuc activity was then measured on a ViewLux CCD imager (PerkinElmer), with exposure times up to ten seconds with medium to high gain settings. Data were normalized to average no enzyme control as 100% enzyme inhibition and average DMSO neutral control. See Supplementary Table 4 for additional details.
Assays were run in the presence (solid symbols) or absence
(open symbols) of 10 µM ATP. Corresponding SMIL E S for NC GC IDs and source data are provided in
Supplementary Data 3 and as a Source Data file. 10
Supplementary Table 4. Protocol for Firefly luciferase (FLuc) and NanoLuc (NLuc) enzymatic
Supplementary Table 4: Protocol for Firefly luciferase (FLuc) and NanoLuc (NLuc) enzym atic lum inescence assay
Firefly luciferase (FLuc) enzym atic lum inescence assay
Sequence Param eter Value Description
No enzym e control (colum n 1) and enzym e solution (1- 10 nM FLuc enzym e) in FLuc assay
1 Reagent 4 µLbuffer; white/solid bottom , m edium bind, high base plates (Greiner), dispensed with BioRaptr
com pounds transferred to respective colum ns with Pintool
2b Test Com pounds 23 nLconcentration range) in colum ns 5- 48; com pounds transferred to respective wells with
3 Incubation 30 m in Incubate enzym e + com pounds at am bient tem p for 30 m in, protected from light
4 Reagent 3 µLAdd 3 µL of D-luciferin substrate solution to each well (final concentration 10 µM); dispensed
(§1) 5 Detector ViewLux Read plate lum inescence (Exposure = 1- 10 sec; Gain = Medium -high; Speed = Slow;
Dispensing solution was diluted in 1X PBS, pH 7.4. […]

[5] = target: FLuc-C-NLuc (firefly luciferase) (Photinus pyralis, UniProt P08659, form not given/L550V); experiment: SDR assay, FLuc-C-NLuc; conditions: - ATP
[6] = target: T2, NLuc (Oplophorus gracilirostris, UniProt Q9GV45, A31E/A60N/A81I/F95D/I117V/K70R/L54V/L99Q/M102K/N193R/P142E/Q151K/Q38R/Q45L/V71I/Y165I); assay type: biochemical; conditions: - ATP
T2 construct: His tag (inferred from IMAC purification); made in house; host or cells: E. coli
Protocol: Compounds and controls were added to plates as described in Supplementary Data 8. Nano-Glo luciferase assay reagent (Promega) was prepared fresh according to manufacturer’s protocol, filtered and added at 3 μL per well across assay plates with a BioRaptr2 dispenser. Enzyme was incubated with Nano-Glo reagent for 10 min and NLuc luminescence was read on a ViewLux CCD imager (PerkinElmer), with 1 s exposure with medium gain and 2x binning. Data were normalized to average no enzyme control as 100% enzyme inhibition and average DMSO neutral control. See Supplementary Table 4 for additional details.
Supplementary Table 4. […]
Sequence Param eter Value Description […]
as §1
Dispensing solution was diluted in 1X PBS, pH 7.4.
NanoLuc luciferase (NLuc) enzym atic lum inescence assay […]
Nano-Glo luciferase assay reagent (Prom ega, Cat # N1120) prepared according to m anufacturer’s recom m endations,
4 com ponents stored at -30 °C until use, and reagent prepared fresh for each assay.
syringe filter prior to dispense.

Sequence of FLuc-C-HiBiT (firefly luciferase) (P08659 2-550 L550V, form open): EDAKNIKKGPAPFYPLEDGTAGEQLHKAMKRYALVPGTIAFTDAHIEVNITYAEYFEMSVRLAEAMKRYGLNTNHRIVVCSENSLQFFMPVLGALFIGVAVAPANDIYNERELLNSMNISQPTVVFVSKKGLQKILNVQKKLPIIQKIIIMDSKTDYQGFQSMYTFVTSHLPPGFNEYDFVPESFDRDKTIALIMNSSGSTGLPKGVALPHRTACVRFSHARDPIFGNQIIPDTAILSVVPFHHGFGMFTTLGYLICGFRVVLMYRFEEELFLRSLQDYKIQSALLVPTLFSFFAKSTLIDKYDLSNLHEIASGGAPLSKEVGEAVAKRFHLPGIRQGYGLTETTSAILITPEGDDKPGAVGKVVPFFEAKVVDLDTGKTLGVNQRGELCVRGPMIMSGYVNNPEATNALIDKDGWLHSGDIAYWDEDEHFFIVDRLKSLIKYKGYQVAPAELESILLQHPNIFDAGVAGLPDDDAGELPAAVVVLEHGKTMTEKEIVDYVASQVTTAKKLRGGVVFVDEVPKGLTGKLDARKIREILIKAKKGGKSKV
Sequence of FLuc-C-NLuc (firefly luciferase) (P08659 2-550 L550V, form open): as above
Sequence of FLuc-N-HiBiT (firefly luciferase) (P08659 2-550 L550V, form open): as above
T1 sequence (P08659 whole entry, looked up): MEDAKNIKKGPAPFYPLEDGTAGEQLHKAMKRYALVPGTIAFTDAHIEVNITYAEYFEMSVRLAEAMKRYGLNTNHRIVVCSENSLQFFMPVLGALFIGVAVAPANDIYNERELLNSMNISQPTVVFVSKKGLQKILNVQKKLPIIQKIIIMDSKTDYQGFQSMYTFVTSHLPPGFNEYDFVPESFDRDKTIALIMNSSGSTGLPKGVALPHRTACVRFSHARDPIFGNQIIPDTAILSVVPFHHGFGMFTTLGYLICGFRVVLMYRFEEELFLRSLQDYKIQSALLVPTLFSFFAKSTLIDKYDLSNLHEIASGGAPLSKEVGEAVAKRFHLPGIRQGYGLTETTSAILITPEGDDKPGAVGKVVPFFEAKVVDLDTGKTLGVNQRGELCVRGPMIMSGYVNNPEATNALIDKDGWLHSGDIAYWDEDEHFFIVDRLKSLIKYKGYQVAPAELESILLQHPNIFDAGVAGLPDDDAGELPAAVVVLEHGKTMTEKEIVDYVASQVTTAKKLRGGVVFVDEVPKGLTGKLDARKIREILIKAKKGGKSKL
Sequence of P. pyralis FLuc (P08659 whole entry): as the sequence (P08659 whole entry, looked up) above
T2 sequence (Q9GV45 other isoform, or with tags, fused parts or gaps with the stated changes): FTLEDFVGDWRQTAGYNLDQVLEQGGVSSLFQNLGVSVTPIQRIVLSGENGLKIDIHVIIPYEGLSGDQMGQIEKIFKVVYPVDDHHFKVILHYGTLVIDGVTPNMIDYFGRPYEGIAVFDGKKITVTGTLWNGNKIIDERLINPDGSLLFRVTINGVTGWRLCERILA

| Compound | IC50 [1] | % Activity (max response, + ATP) ([2]; + ATP) | % Activity (max response, - ATP) ([2]; - ATP) | pSDR50 (clade A') ([2]; + ATP) | pSDR50 (clade A') ([2]; - ATP) | % Activity (max response, + ATP) [3] | % Activity (max response, - ATP) [3] | pIC50 or pSDR50 FLuc E [4] | Efficacy (%) FLuc E [4] | IC50 [4] | Efficacy (%) FLuc-C-NLuc SDR (-ATP) [5] | Efficacy (%) NLuc (- ATP) [6] |
| --- | --- | --- | --- | --- | --- | --- | --- | --- | --- | --- | --- | --- |
| COc1ccc(NC(=O)N2CCc3c(C(=O)N(C)C)cccc32)cc1 [NCGC00430182-01] | 0.111 µM | 126.00% | 37.35% | 6.80 | 4.62 |  |  |  |  |  |  |  |
| COc1ccc(NC(=O)c2cccc3c2CCN3C(=O)Nc2ccc(F)cc2)c(C)c1 [NCGC00430188-01] | 0.556 µM | 119.00% | 13.12% | 6.16 |  |  |  |  |  |  |  |  |
| O=C(NCCc1cccnc1)c1cccc2c1CCN2C(=O)Nc1ccc(F)cc1 [NCGC00430192-01] | 0.221 µM | 119.50% | 23.04% | 6.44 | 2.73 |  |  |  |  |  |  |  |
| O=C(NCCc1cccs1)c1cccc2c1CCN2C(=O)Nc1ccc(F)cc1 [NCGC00430196-01] | 0.785 µM | 108.30% | 19.81% | 5.86 |  |  |  |  |  |  |  |  |
| CN(C)C(=O)c1cccc2c1CCN2C(=O)Nc1ccc(F)cc1 [NCGC00430198-01] | 3.94 µM | 116.90% | 14.79% | 5.19 |  |  |  |  |  |  |  |  |
| CCC(=O)N1CCc2c(C(=O)O)cccc21 [NCGC00432605-01] | > 30 µM | 19.35% | 9.26% |  |  |  |  |  |  |  |  |  |
| O=C(O)c1cccc2c1CCN2C(=O)c1ccccc1 [NCGC00432607-01] | 3.94 µM | 65.64% | 14.85% | 5.66 |  |  |  |  |  |  |  |  |
| O=C(O)c1cccc2c1CCN2C(=O)c1ccc(F)cc1 [NCGC00432675-01] | 1.76 µM | 81.35% | 20.90% | 5.89 | 4.16 |  |  |  |  |  |  |  |
| O=C(O)c1cccc2c1CCN2C(=O)Nc1ccc(F)cc1 [NCGC00432687-01] | 0.00351 µM | 127.90% | 102.18% | 8.36 | 4.92 |  |  |  |  |  |  |  |
| O=C(NC1CCCCCC1)C1CCN(C(=O)c2ncn3c2COC(c2ccccc2)C3)CC1 (stereo not drawn) [NCGC00449769-01] |  |  |  |  |  | 369.53% | 0.00% | 5.26 | -80.74% | 0.00555 mM | 0.00% | 0.00% |
| O=C(NC1CCCCCCC1)C1CCN(C(=O)c2ncn3c2COC(c2ccccc2)C3)CC1 (stereo not drawn) [NCGC00449770-01] |  |  |  |  |  | 338.48% | 0.00% | 5.16 | -92.12% | 0.00699 mM | 0.00% | 0.00% |
| O=C(NCCC1=CCCCC1)C1CCN(C(=O)c2ncn3c2COC(c2ccccc2)C3)CC1 (stereo not drawn) [NCGC00449771-01] |  |  |  |  |  | 338.43% | 0.00% | 5.56 | -97.83% | 0.00278 mM | 0.00% | 0.00% |
| O=C(NCc1ccccc1)C1CCN(C(=O)c2ncn3c2COC(c2ccccc2)C3)CC1 (stereo not drawn) [NCGC00449773-01] |  |  |  |  |  | 344.70% | 0.00% | 5.56 | -92.80% | 0.00278 mM | 0.00% | 0.00% |
| Cc1ccc(CNC(=O)C2CCN(C(=O)c3ncn4c3COC(c3ccccc3)C4)CC2)cc1 (stereo not drawn) [NCGC00449774-01] |  |  |  |  |  | 316.62% | 0.00% | 5.01 | -84.01% | 0.00988 mM | 0.00% | 0.00% |
| CCc1ccc(CNC(=O)C2CCN(C(=O)c3ncn4c3COC(c3ccccc3)C4)CC2)cc1 (stereo not drawn) [NCGC00449775-01] |  |  |  |  |  | 294.78% | 0.00% | 5.01 | -61.62% | 0.00988 mM | 0.00% | 0.00% |
| COc1cccc(CNC(=O)C2CCN(C(=O)c3ncn4c3COC(c3ccccc3)C4)CC2)c1 (stereo not drawn) [NCGC00449777-01] |  |  |  |  |  | 322.03% | 0.00% | 5.26 | -78.20% | 0.00555 mM | 0.00% | 0.00% |
| COc1ccc(CNC(=O)C2CCN(C(=O)c3ncn4c3COC(c3ccccc3)C4)CC2)cc1 (stereo not drawn) [NCGC00449778-01] |  |  |  |  |  | 301.65% | 0.00% | 5.01 | -88.62% | 0.00988 mM | 0.00% | 0.00% |
| O=C(NCc1ccc(F)cc1)C1CCN(C(=O)c2ncn3c2COC(c2ccccc2)C3)CC1 (stereo not drawn) [NCGC00449784-01] |  |  |  |  |  | 341.35% | 0.00% | 5.26 | -93.60% | 0.00555 mM | 0.00% | 0.00% |
